Laboratory results: publication PMC8617031, “Development of a BCL-xL and BCL-2 dual degrader with improved anti-leukemic activity,” (Nature Communications, 2021)
Values joined by “and” are separate entries in the source; they are usually repeats but may differ in a detail not shown here. Identical values can stand only once.

What was measured:
[1] = target: T1, BCL-2 (Homo sapiens, UniProt P10415); assay: BCL-2 degradation by immunoblot in 293T cells; type: cell-based; details: 293T, 16 h, Supplementary Fig. 1b
T1 construct: endogenous in cells
T1 sequence (P10415 whole entry): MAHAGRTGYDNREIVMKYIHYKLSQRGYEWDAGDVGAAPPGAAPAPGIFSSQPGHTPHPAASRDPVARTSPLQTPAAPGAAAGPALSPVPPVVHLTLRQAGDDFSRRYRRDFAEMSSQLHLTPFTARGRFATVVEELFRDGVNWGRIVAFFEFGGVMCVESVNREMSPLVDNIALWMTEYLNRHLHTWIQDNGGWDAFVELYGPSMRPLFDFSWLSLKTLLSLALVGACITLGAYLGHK
Experimental: (§1) The DC50 and Dmax were calculated using Prism based on the ImageJ-quantified western blots in Supplementary Fig. 4. c, d AlphaLISA assay to determine the formation of BCL-xL/PROTAC/VHL-ELOC-ELOB (VCB) (c) or BCL-2/PROTAC/VCB (d) ternary complex in a cell-free condition. Data represent the mean of a single experiment with 2 technical replicates. Similar results were obtained in one more independent experiment. e, f NanoBRET assays evaluating intracellular BCL-xL/PROTAC/VCB (e) or BCL-2/PROTAC/VCB (f) ternary complex formation. […] Data are expressed as mean ± s.e.m. of three biological replicates. Source data are provided as a Source data file.
(§2) Representative immunoblots are shown in (a–d) and β-actin was used as a loading control in all immunoblot analyses. The normalized protein content in the immunoblots is presented as mean values ± s.e.m. (n = 3 biologically independent experiments) in the bar graph (bottom panel). e, f The formation of BCL-xL/PROTAC/VCB (e) and BCL-2/PROTAC/VCB (f) ternary complexes in a cell-free condition was determined by AlphaLISA assay. Data represent the mean of a single experiment with 2 technical replicates. […] Source data are provided as a Source data file.
(§3) Cells were collected, washed once with ice-cold phosphate-buffered saline, pH 7.2 (PBS, cat. no. 20012027; Thermo Fisher Scientific) and lysed in RIPA lysis buffer (Cat. No. BP-115DG, Boston Bio Products, Ashland, MA, USA) supplemented with protease and phosphatase inhibitor cocktails (Cat. No. PPC1010, Sigma-Aldrich, St. Louis, MO, USA) through sonication. The samples were centrifuged at 14,000 r.p.m. for 5 min and the supernatants were transferred into a new tube. The protein concentration in the supernatants was determined using the Pierce BCA protein Assay kit (cat. no. 23225, Thermo Fisher Scientific). The protein concentration was normalized, and the samples were reduced in 4× Laemmli’s SDS-sample buffer (cat. no. BP-110R, Boston Bio Products) and denatured at 95 °C for 5 min. An equal amount of protein samples (20–40 μg per lane) were resolved using precast 4–20% Tris-glycine gels (Mini-PROTEAN TGX, cat. no. 456–1094, Bio-Rad), and resolved proteins were transferred onto 0.2-µm pore size polyvinylidene difluoride (PVDF) blotting membranes (cat. no. LC2002, Thermo Fisher Scientific) using mini trans-blot electrophoretic transfer cell (Bio-Rad). The membranes were blocked with non-fat dry milk (5% wt/vol) in 1× Tris-buffered saline-Tween-20 (TBST, cat. no. J77500, Affymetrix) for 1 h at room temperature, and were subsequently probed with primary antibodies at a predetermined optimal concentration in non-fat dry milk (5% wt/vol in TBST) overnight at 4 °C. The membranes were washed three times (5 min each) in TBST and then incubated with horse radish peroxidase (HRP)-conjugated secondary antibodies for 1 h at room temperature. Following sufficient washing with TBST, the membranes were exposed with chemiluminescent HRP substrate (cat. no. WBKLS0500, MilliporeSigma), and the signal was detected using the ChemiDoc MP Imaging System (Bio-Rad) and quantified using the ImageJ (v1.53a) software from NIH.

[2] = target: T2, BCL-xL (Homo sapiens, UniProt Q07817); assay: BCL-xL degradation by immunoblot in 293T cells; type: cell-based; details: 16 h; for normalized BCL-xL protein content: 293T, Supplementary Fig. 1b
T2 construct: endogenous in cells
T2 sequence (Q07817 whole entry): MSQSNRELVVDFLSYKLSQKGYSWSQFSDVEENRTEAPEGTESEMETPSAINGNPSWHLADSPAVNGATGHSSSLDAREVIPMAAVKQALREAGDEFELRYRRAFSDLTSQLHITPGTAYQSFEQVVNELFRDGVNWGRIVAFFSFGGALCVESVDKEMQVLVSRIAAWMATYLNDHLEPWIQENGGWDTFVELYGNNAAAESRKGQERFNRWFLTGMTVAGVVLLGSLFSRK
Experimental: as §1, §2, §3

[3] = test system: BCL-2/PROTAC/VCB ternary complex (HiBit-BCL-2, HaloTag-VHL); assay: NanoBRET intracellular ternary complex formation in 293T cells, BCL-2; type: cell-based, human; details: NanoBRET, 293T cells, 6 h
From the text: (§4) Plasmids HaloTag-VHL (Cat. No. CS1679C155) and CMV HiBit (Cat. No. CS1956B03) were purchased from Promega. HiBit-BCL-xL and HiBit-BCL-2 were constructed previously. The two mutants (HiBit-BCL-xL-K157-only and HiBit-BCL-xL-K-ko) were constructed through Gibson assembly method. The primer pair (5′-[…]-3′ and 5′-[…]c[…]-3′) and the template Flag-BCL-xL-K157-only or Flag-BCL-xL-K-ko (pDL2129)[2] were used to clone the BCL-xL-K157-only-containing and BCL-xL-K-ko-containing fragments, respectively. The primer pair (5′-[…]g[…]-3′ and 5′-[…]-3′) and pBit3.1-N (Cat. No. N2361, Promega) were used to clone the vector-containing fragment. The PCR fragments were assembled using NEBuilder® HiFi DNA Assembly Master Mix (Cat. No. E2621, NEB, Ipswich, MA, USA). DNA sequences in all these plasmids were authenticated by automatic sequencing. […] After 24 h, 2 × 10^4 transfected cells were seeded into white 96-well tissue culture plates in Gibco™ Opti-MEM™ I Reduced Serum Medium, No Phenol Red (Cat. No. 11-058-021, Fisher) containing 4% FBS with or without HaloTag NanoBRET 618 Ligand (Cat. No. PRN1662, Promega) and incubated overnight at 37 °C, 5% CO2. The following day, serial diluted compounds were added into the medium and plates were incubated at 37 °C, 5% CO2, for 6 h. After treatment, NanoBRET Nano-Glo Substrate (cat. no. N1662, Promega) was added into the medium, and the contents were mixed by shaking the plate for 30 s before measuring donor and acceptor signals on Biotek plate reader. Dual-filtered luminescence was collected with a 450/50 nm bandpass filter (donor, NanoBiT-BCL-XL protein or NanoBiT-BCL-2 protein) and a 610-nm longpass filter (acceptor, HaloTag NanoBRET ligand) using an integration time of 0.5 s. mBRET ratios were calculated following the NanoBRET™ Nano-Glo® Detection System (Cat. No. N1662, Promega).

[4] = test system: BCL-xL/PROTAC/VCB ternary complex (HiBit-BCL-xL, HaloTag-VHL); assay: NanoBRET intracellular ternary complex formation in 293T cells, BCL-xL; type: cell-based, human; details: NanoBRET, 293T cells, 6 h
From the text: as §4

[5] = XZ739 concentration 0.003 (unit not given), untreated = 100, 2 replicates

SMILES: CN(CCOCCOCCOCCNc1cccc2c1C(=O)N(C1CCC(=O)NC1=O)C2=O)CC[C@H](CSc1ccccc1)Nc1ccc(S(=O)(=O)NC(=O)c2ccc(N3CCN(CC4=C(c5ccc(Cl)cc5)CCC(C)(C)C4)CC3)cc2)cc1S(=O)(=O)C(F)(F)F (some centres unmarked) [XZ739, reference compound]
- normalized BCL-2 protein content [1, 5]: 116 and 103
- normalized BCL-2 protein content ([1]; concentration 0.01): 119 and 99
- normalized BCL-2 protein content ([1]; concentration 0.03): 113 and 104
- normalized BCL-2 protein content ([1]; concentration 0.1): 114 and 109
- normalized BCL-2 protein content ([1]; concentration 0.3): 119 and 101
- normalized BCL-2 protein content ([1]; concentration 1): 102 and 95
- normalized BCL-2 protein content ([1]; concentration 3): 97 and 102
- BCL-xL degradation (in words) ([2]; 293T cells): could degrade BCL-xL
- normalized BCL-xL protein content [2, 5]: 88 and 95
- normalized BCL-xL protein content ([2]; concentration 0.01): 85 and 86
- normalized BCL-xL protein content ([2]; concentration 0.03): 76 and 80
- normalized BCL-xL protein content ([2]; concentration 0.1): 67 and 65
- normalized BCL-xL protein content ([2]; concentration 0.3): 32 and 40
- normalized BCL-xL protein content ([2]; concentration 1): 32 and 31
- normalized BCL-xL protein content ([2]; concentration 3): 22 and 19
- intracellular ternary complex formation with BCL-2 (in words) [3]: formed cellular ternary complexes with both BCL-xL and BCL-2
- intracellular ternary complex formation with BCL-xL (in words) [4]: formed cellular ternary complexes with both BCL-xL and BCL-2
